Experimental data taken from patent publication US20110151455A1, “Fish-ribosyn for antibiotic susceptibility testing” (University of South Florida, priority 2006, published 2011).
In brackets after ≈: the same amount, converted by molar mass. Entries after “also recorded” stand apart in the source; their conditions may differ.

Legend:
[1] = system: Acinetobacter lwoffii (ATCC 15309); assay: FISH-RiboSyn of antibiotic treated batch cultures (dF/dt); assay type: cell-based; design: ratio of dF/dt compared to the control: concentration or dose not given beside the values; details: for effect on ribosome synthesis: in words
Procedure: Acinetobacter lwoffii (ATCC 15309) was cultured on nutrient agar plates inoculated from a frozen glycerol/bead stock. After incubation for 24 hours at 32° C., a single colony was removed from the plate with a sterile loop and streaked on a second nutrient agar plate. The sterile loop was then submerged in a test tube containing 10 mL of […] which was incubated for 12 hours and 1 mL of grown culture was added to 1 mL of 4% paraformaldehyde (PFA) and incubated for 1 hour. The sample was then centrifuged at 10,000 G for 5 minutes, the supernatant decanted, and the cell pellet resuspended in ethanol PBS. Fluorescence in situ hybridization (FISH) with a genus specific probe was performed on this sample to verify culture purity before proceeding with the experiment. After culture purity was verified, the plated culture was incubated for 24 hours and a single colony was picked with a sterile loop and transferred to a 10 mL test tube of nutrient broth and incubated for 14 hours. The primary culture for this experiment was inoculated by transferring 1 mL from the test tube to a 100 mL nutrient broth flask. The optical density (OD at wavelength of 600 nm) of the culture was monitored over time until OD=0.449. At this time 10 mL of culture was transferred to four separate flasks containing 90 mL of nutrient broth and an appropriate amount of antibiotic. […] (Wisplinghoff et al. (2000)). Flask 4 was untreated as a control culture. At the same time, 9 mL of the primary culture was added to a 50 mL conical containing 1 mL of 1 mg/mL chloramphenicol for a final concentration of 100 μg/mL. Samples of 1 mL were taken from the chloramphenicol treated cell culture at 0, 5, 10, 15, and 20 minutes and incubated in 1 mL of 4% PFA for at least one hour. These samples were then centrifuged at 10,000 G for 5 minutes, the supernatant decanted and cell pellets resuspended in ethanol PBS and stored at −20° C. until evaluated by FISH.
A dilution series of a growing culture of A. lwoffii was previously used to determine the relationship between OD (at 600 nm) and CFU/mL by plating diluted samples on nutrient agar plates at various values of OD and performing plate counts.
Treated flasks were allowed to incubate for 30 minutes and which time 9 mL of the primary culture was added to a 50 mL conical containing 1 mL of 1 mg/mL chloramphenicol for a final concentration of 100 μg/mL. Samples of 1 mL were taken from the chloramphenicol treated cell culture at 0, 5, 10, 15, and 20 minutes and incubated in 1 mL of 4% PFA for at least one hour. These samples were then centrifuged at 10,000 G for 5 minutes, the supernatant decanted and cell pellets resuspended in ethanol PBS and stored at −20° C. until evaluated by FISH. This was repeated for each flask at 90, 150, and 210 minutes of incubation with the antibiotic.
All images were analyzed using the Image-Pro Plus (v6.2.0.424) software package. Only single cells or diplococci were included in analysis. Images were thresholded using the “Automatic Bright Objects” option in the measurement console. Occasionally this algorithm excluded dim objects if bright objects were present. In these cases the manual thresholding was used to find the optimal thresholding range. […] The highest size threshold used for these cells was 5,000 pixels^2.

[2] = system: Acinetobacter lwoffii (ATCC 15309); assay: Optical density of antibiotic treated batch cultures; assay type: cell-based; details: experimental batch culture compared to control
Procedure: Acinetobacter lwoffii (ATCC 15309) was cultured on nutrient agar plates inoculated from a frozen glycerol/bead stock. After incubation for 24 hours at 32° C., a single colony was removed from the plate with a sterile loop and streaked on a second nutrient agar plate. The sterile loop was then submerged in a test tube containing 10 mL of […] which was incubated for 12 hours and 1 mL of grown culture was added to 1 mL of 4% paraformaldehyde (PFA) and incubated for 1 hour. The sample was then centrifuged at 10,000 G for 5 minutes, the supernatant decanted, and the cell pellet resuspended in ethanol PBS. Fluorescence in situ hybridization (FISH) with a genus specific probe was performed on this sample to verify culture purity before proceeding with the experiment. After culture purity was verified, the plated culture was incubated for 24 hours and a single colony was picked with a sterile loop and transferred to a 10 mL test tube of nutrient broth and incubated for 14 hours. The primary culture for this experiment was inoculated by transferring 1 mL from the test tube to a 100 mL nutrient broth flask. The optical density (OD at wavelength of 600 nm) of the culture was monitored over time until OD=0.449. […] These samples were then centrifuged at 10,000 G for 5 minutes, the supernatant decanted and cell pellets resuspended in ethanol PBS and stored at −20° C. until evaluated by FISH.

[3] = system: Acinetobacter baumannii^T; assay: Minimum inhibitory concentration (MIC) determination; assay type: cell-based; details: ATCC19606, A. baumannii^T, ATCC 19606
[4] = system: Acinetobacter baumannii CBD1311; assay: as above; assay type: cell-based; details: A. baumannii CBD1311
A. baumannii CBD1311 = assay: FISH-RiboSyn antibiotic susceptibility testing (rate of ribosome synthesis, pre-16S rRNA); assay type: cell-based, Acinetobacter baumannii; details: 30 minutes of antibiotic exposure; for dF/dtcm (rate of ribosome synthesis): doxycycline 8 μg/mL or levofloxacin 2 μg/mL
Procedure: (§1) Sample collection. When it was observed that a culture was in mid-log growth phase (OD of approximately 0.4) 50 mL of the culture was transferred to a sterile flask and subjected to chloramphenicol at a final concentration of 200 mg/L. Samples (1 mL) were collected from the sub-culture every five minutes (including a sample at time zero) for a total of 20 minutes. Each sample was centrifuged at 10,000 G for 2 minutes, the supernatant was decanted, and the resulting cell pellet was resuspended in 1 mL of 4% PFA for 12-24 hours. The samples were centrifuged and supernatant decanted, as previously described, and resuspended in 2 mL of ethanol PBS (EtOH-PBS). The samples were stored at −20° C. until further analysis.
(§2) To test the effects of the antibiotic doxycycline, doxycycline (Fisher Scientific) stock solution (1 mg/mL) was added to 100-mL of fresh, sterile nutrient broth for a final concentration of 8 μg/mL. A sample from an actively growing culture (10 mL) was added to the doxycycline/nutrient broth for a final volume of 110 mL. The aforementioned transfers were performed for both the resistant strain A. baumannii CBD1311 (OD=0.378) and a susceptible strain A. baumannii^T (OD=0.324). […] Transfers were performed for A. baumannii CBD1311 (OD=0.338) and A. baumannii^T (OD=0.365) and the dilutions were sufficient to ensure that the culture was below a McFarland standard of 0.5. Additionally, controls were implemented for each transfer where an additional 10 mL of the appropriate culture was combined with 100 mL of fresh sterile nutrient broth without an antibiotic. All cultures were incubated at 32° C. and shaken continuously (200 rpm).
(§3) A fluorescently-labeled oligonucleotide hybridization probe, Acin1543, targeting the pre-16S rRNA for members of the genus Acinetobacter was synthesized (5′-[…]-3′) (SEQ ID NO:1) and conjugated with the cyanine dye, Cy3, before purification with oligonucleotide probe purification cartridges (Oerther et al. (2000b)). Fluorescently labeled probes were diluted to 50 ng/μL with RNase-free water and stored at −20° C. in the dark. Fixed samples were applied to a sample well on a 10 well Heavy Teflon Coated microscope slide (Cel-Line Associates, New Field, N.J.) and air-dried. After dehydration with an increasing ethanol series (50, 80, 95% [vol/vol] ethanol, 1 min each), each sample well was covered with a mixture of 18 μL of hybridization buffer (20% [vol/vol] formamide, 0.9 M NaC1, 100 mM Tris HCl [pH 7.0], 0.1% SDS) (DelosReyes et al. (1997)) and 2 μL of the stock fluorescently labeled oligonucleotide probe. The hybridizations were conducted in a moisture chamber containing excess hybridization buffer (to prevent dehydration of buffer on sample wells) for 1.5 h, in the dark, at 46° C. The slides were washed for 30 min at 48° C. with 50 mL of pre-warmed washing buffer solution (215 mM NaCl, 20 mM Tris HCl [pH 7.0], 0.1% SDS, and 5 mM EDTA) (DelosReyes et al. (1997)). Fixed, hybridized cells were mounted with Type FF immersion oil (Cargille, Cedar Grove, N.J.) and a cover slip. Cells were stained with 4′, 6-diamidino-2-phenylindole (DAPI) at a concentration of 1 μg/mL for 1 minute and rinsed with DI water.
(§4) Image Capture. Whole cell fluorescence was visualized with an upright epiflourescence microscope (Leitz DiaPlan, Heerbrugg, Switzerland), and digital images were captured using a Spot-FLEX charge coupled device (CCD) camera (Diagnostic Instruments, Inc., Sterling Heights, Mich.). Images were collected using a 100× oil objective and constant exposure time (1.1 sec for experiment I; 3.0 sec for experiment 2) and gain of 2.

A. baumannii^T [5] = assay: as above; assay type: cell-based, Acinetobacter baumannii; details: for initial mean whole cell fluorescence: prior to chloramphenicol, 8-bit intensity
Procedure: as §1, §2, §3, §4

A. baumannii^T [6] = assay: Growth of antibiotic treated culture by optical density (OD); assay type: cell-based, Acinetobacter baumannii; details: susceptible strain; levofloxacin 2 μg/mL
Procedure: Culturing. Four Acinetobacter strains (Table 1) were maintained on nutrient agar (Difco) at 35° C. Prior to each experiment, a single colony was used to inoculate an overnight culture of nutrient broth (Difco). Experimental cultures were prepared by transferring 1 mL of culture to a flask containing 100 mL of nutrient broth. The relationship between optical density (OD at 600 nm) and cell concentration (CFU/mL) was determined by collecting samples between an OD of 0.1 and 0.6. The samples were serially diluted (10^−4-10^−7) in sterile nutrient broth and 100 μL of diluted sample was spread on nutrient agar plates in replicates of 5. After 24 hours of incubation at 35° C., colonies were counted on plates which contained between 20 and 200 colonies.
To test the effects of the antibiotic doxycycline, doxycycline (Fisher Scientific) stock solution (1 mg/mL) was added to 100-mL of fresh, sterile nutrient broth for a final concentration of 8 μg/mL. A sample from an actively growing culture (10 mL) was added to the doxycycline/nutrient broth for a final volume of 110 mL. The aforementioned transfers were performed for both the resistant strain A. baumannii CBD1311 (OD=0.378) and a susceptible strain A. baumannii^T (OD=0.324). […]

[7] = antibiotic exposure 30 min, ampicillin 2 μg/mL, ciprofloxacin 0.25 μg/mL, doxycycline 500 μg/mL
[8] = 90 minutes of antibiotic exposure, doxycycline 8 μg/mL or levofloxacin 2 μg/mL

| MIC [3] | MIC [4] | SMILES | dF/dt [1, 7] | dF/dt ([1]; antibiotic exposure 90 min) | dF/dt ([1]; antibiotic exposure 150 min) | dF/dt ([1]; antibiotic exposure 210 min) | effect on ribosome synthesis [1] | ratio of dF/dt compared to the control ([1]; antibiotic exposure 30 min) | ratio of dF/dt compared to the control ([1]; antibiotic exposure 90 min) | ratio of dF/dt compared to the control ([1]; antibiotic exposure 210 min) | dF/dtcm (rate of ribosome synthesis) (A. baumannii CBD1311) | dF/dtcm (rate of ribosome synthesis) (A. baumannii^T [5]; [8]) | other results |
| --- | --- | --- | --- | --- | --- | --- | --- | --- | --- | --- | --- | --- | --- |
|  |  | O=C(O)c1cn(C2CC2)c2cc(N3CCNCC3)c(F)cc2c1=O [Ciprofloxacin] | 4.46 | 2.42 | 0.254 | 0.308 | appear to not be synthesizing ribosomes after 150 min |  |  |  |  |  |  |
|  |  | CC1(C)S[C@@H]2[C@H](NC(=O)[C@H](N)c3ccccc3)C(=O)N2[C@H]1C(=O)O [Ampicillin] | 4.7 | 5.06 | 2.86 | 0 | impacted by the ampicillin after exposure for 150 and 210 min; also recorded: greater dF/dt than the control cells | 93% | 152% | 0% |  |  | cell morphology ([1]; long exposures (T=150 min)): elongated cells; impact on optical density [2]: mild impact |
| ≤ 0.125 µg/mL | 16 µg/mL (≈ 36 µM) | C[C@H]1c2cccc(O)c2C(=O)C2=C(O)[C@]3(O)C(=O)C(C(N)=O)=C(O)[C@@H](N(C)C)[C@@H]3[C@@H](O)[C@@H]21 [doxycycline] | 0.1238 | 0 | 0 | 0 |  | 2% | 0% | 0% | 4.95 | 1.38 | initial mean whole cell fluorescence (A. baumannii CBD1311; prior to chloramphenicol, 8-bit intensity): approximately 26; initial mean whole cell fluorescence (A. baumannii^T [5]; 30 minutes of antibiotic exposure): 59.6 |
| 0.25 µg/mL (≈ 0.692 µM) | 8 µg/mL (≈ 22.1 µM) | C[C@H]1COc2c(N3CCN(C)CC3)c(F)cc3c(=O)c(C(=O)O)cn1c23 [levofloxacin] |  |  |  |  |  |  |  |  | 5.84 | 1.67 | dF/dtcm (rate of ribosome synthesis) (A. baumannii^T [5]; 30 minutes of antibiotic exposure, doxycycline 8 μg/mL or levofloxacin 2 μg/mL): 2.23; initial mean whole cell fluorescence (A. baumannii^T [5]; 90 minutes of antibiotic exposure): 71; reduction in dF/dtcm compared to the control (A. baumannii^T [5]; 90 minutes of levofloxacin exposure): > 50%; dF/dtcm (rate of ribosome synthesis) (A. baumannii^T [5]; after 60 minutes of exposure to levofloxacin (so in the source), 2 μg/mL): 1.67; delay before cessation of growth (A. baumannii^T [6]): 60 min |
